Data from ChEMBL document CHEMBL1201862, “PubChem BioAssay data set” (2004).
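Grown in 96-well plates, cells were treated for 48 hours with each compound at five concentrations. Insufficient inhibition: endpoint recorded as highest concentration tested. Here, GI50 denotes the concentration required for 50% inhibition of growth.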 Activity calls are given as the source filed them. Rule as the data show it: active = GI50 up to about 1.1 µM and inactive = higher.

What was measured:
Assay in all cases: growth of human tumour cells (NCI), 48 h
M14 = tested on: M14
NCI-H23 = tested on: NCI-H23
SF-539 = tested on: SF-539
MDA-MB-231 = tested on: MDA-MB-231
HOP-92 = tested on: HOP-92
RPMI-8226 = tested on: RPMI-8226
HT-29 = tested on: HT-29
BT-549 = tested on: BT-549
EKVX = tested on: EKVX
NCI-H460 = tested on: NCI-H460
786-0 = tested on: 786-0
MDA-N = tested on: MDA-N
UACC-257 = tested on: UACC-257
RXF 393 = tested on: RXF 393
HOP-62 = tested on: HOP-62
SR = tested on: SR
SK-OV-3 = tested on: SK-OV-3
NCI-H522 = tested on: NCI-H522
SK-MEL-28 = tested on: SK-MEL-28
A549 = tested on: A549
PC-3 = tested on: PC-3
MDA-MB-435 = tested on: MDA-MB-435
SNB-75 = tested on: SNB-75
OVCAR-4 = tested on: OVCAR-4
HCC 2998 = tested on: HCC 2998
SNB-19 = tested on: SNB-19
ACHN = tested on: ACHN
SF-295 = tested on: SF-295
CCRF-CEM = tested on: CCRF-CEM
UACC-62 = tested on: UACC-62
Hs-578T = tested on: Hs-578T
HCT-15 = tested on: HCT-15
A498 = tested on: A498
OVCAR-5 = tested on: OVCAR-5
SN12C = tested on: SN12C
DU-145 = tested on: DU-145
IGROV-1 = tested on: IGROV-1
OVCAR-3 = tested on: OVCAR-3
KM12 = tested on: KM12
K562 = tested on: K562
NCI/ADR-RES = tested on: NCI/ADR-RES
MOLT-4 = tested on: MOLT-4
NCI-H226 = tested on: NCI-H226
T47D = tested on: T47D
UO-31 = tested on: UO-31
SK-MEL-5 = tested on: SK-MEL-5
COLO 205 = tested on: COLO 205
Malme-3M = tested on: Malme-3M
OVCAR-8 = tested on: OVCAR-8
HL-60 = tested on: HL-60
HCT-116 = tested on: HCT-116
TK-10 = tested on: TK-10
CAKI-1 = tested on: CAKI-1
SF-268 = tested on: SF-268
U-251 = tested on: U-251
SK-MEL-2 = tested on: SK-MEL-2
MCF7 = tested on: MCF7
SW-620 = tested on: SW-620
LOX IMVI = tested on: LOX IMVI

COc1cc(NC=C2C(=O)OC(C)(C)OC2=O)c(OC)c(C)c1OC
GI50 (M14): > 100 µM (inactive) | GI50 (NCI-H23): > 100 µM (inactive) | GI50 (SF-539): > 100 µM (inactive) | GI50 (MDA-MB-231): > 100 µM (inactive) | GI50 (HOP-92): > 100 µM (inactive) | GI50 (RPMI-8226): > 100 µM (inactive) | GI50 (HT-29): > 100 µM (inactive) | GI50 (BT-549): > 100 µM (inactive) | GI50 (EKVX): > 100 µM (inactive) | GI50 (NCI-H460): > 100 µM (inactive) | GI50 (786-0): > 100 µM (inactive) | GI50 (MDA-N): > 100 µM (inactive) | GI50 (UACC-257): > 100 µM (inactive) | GI50 (RXF 393): > 100 µM (inactive) | GI50 (HOP-62): > 100 µM (inactive) | GI50 (SR): > 100 µM (inactive) | GI50 (SK-OV-3): > 100 µM (inactive) | GI50 (NCI-H522): > 100 µM (inactive) | GI50 (SK-MEL-28): > 100 µM (inactive) | GI50 (A549): > 100 µM (inactive) | GI50 (PC-3): > 100 µM (inactive) | GI50 (MDA-MB-435): > 100 µM (inactive) | GI50 (SNB-75): > 88.3 µM (inactive) | GI50 (OVCAR-4): > 74 µM (inactive) | GI50 (HCC 2998): > 100 µM (inactive) | GI50 (SNB-19): > 100 µM (inactive) | GI50 (ACHN): > 100 µM (inactive) | GI50 (SF-295): > 100 µM (inactive) | GI50 (CCRF-CEM): > 100 µM (inactive) | GI50 (UACC-62): > 100 µM (inactive) | GI50 (Hs-578T): > 100 µM (inactive) | GI50 (HCT-15): > 100 µM | GI50 (A498): > 100 µM (inactive) | GI50 (OVCAR-5): > 100 µM (inactive) | GI50 (SN12C): > 100 µM (inactive) | GI50 (DU-145): > 100 µM (inactive) | GI50 (IGROV-1): > 100 µM (inactive) | GI50 (OVCAR-3): > 100 µM (inactive) | GI50 (KM12): > 100 µM (inactive) | GI50 (K562): > 100 µM (inactive) | GI50 (NCI/ADR-RES): > 100 µM (inactive) | GI50 (MOLT-4): > 100 µM (inactive) | GI50 (NCI-H226): > 100 µM (inactive) | GI50 (T47D): > 100 µM (inactive) | GI50 (UO-31): > 100 µM (inactive) | GI50 (SK-MEL-5): > 100 µM (inactive) | GI50 (COLO 205): > 100 µM (inactive) | GI50 (Malme-3M): > 65.2 µM (inactive) | GI50 (OVCAR-8): > 100 µM (inactive) | GI50 (HL-60): > 100 µM (inactive) | GI50 (HCT-116): > 100 µM (inactive) | GI50 (TK-10): > 100 µM (inactive) | GI50 (CAKI-1): > 83.4 µM (inactive) | GI50 (SF-268): > 100 µM (inactive) | GI50 (U-251): > 100 µM (inactive) | GI50 (SK-MEL-2): > 100 µM (inactive) | GI50 (MCF7): > 100 µM (inactive) | GI50 (SW-620): > 100 µM (inactive) | GI50 (LOX IMVI): > 100 µM (inactive)

CC1(C)CCC[C@@]2(C)C1CC[C@@]1(CO)O[C@H](C3=CC(=O)OC3O)C[C@H]12 (stereo partly drawn)
GI50 (M14): 11.8 µM (inactive) | GI50 (NCI-H23): 13.6 µM (inactive) | GI50 (SF-539): 19.3 µM (inactive) | GI50 (MDA-MB-231): 18.8 µM (inactive) | GI50 (HOP-92): 19.1 µM (inactive) | GI50 (RPMI-8226): 3.87 µM (inactive) | GI50 (HT-29): 13 µM (inactive) | GI50 (BT-549): 8.26 µM (inactive) | GI50 (EKVX): 22.9 µM (inactive) | GI50 (NCI-H460): 17.7 µM (inactive) | GI50 (786-0): 15 µM (inactive) | GI50 (MDA-N): 12.6 µM (inactive) | GI50 (UACC-257): 14.9 µM (inactive) | GI50 (RXF 393): 11 µM (inactive) | GI50 (HOP-62): 14.9 µM (inactive) | GI50 (SR): 2.71 µM (inactive) | GI50 (SK-OV-3): 29.4 µM (inactive) | GI50 (NCI-H522): 3.69 µM (inactive) | GI50 (SK-MEL-28): 11.4 µM (inactive) | GI50 (A549): 30.5 µM (inactive) | GI50 (PC-3): 13.8 µM (inactive) | GI50 (MDA-MB-435): 11.5 µM (inactive) | GI50 (SNB-75): 15.3 µM (inactive) | GI50 (OVCAR-4): 14.5 µM (inactive) | GI50 (HCC 2998): 17.4 µM (inactive) | GI50 (SNB-19): 16.2 µM (inactive) | GI50 (ACHN): 14 µM (inactive) | GI50 (SF-295): 21.5 µM (inactive) | GI50 (CCRF-CEM): 2.74 µM (inactive) | GI50 (UACC-62): 3.89 µM (inactive) | GI50 (Hs-578T): 14.7 µM (inactive) | GI50 (HCT-15): 7.57 µM | GI50 (A498): 15 µM (inactive) | GI50 (OVCAR-5): 22.8 µM (inactive) | GI50 (SN12C): 13.3 µM (inactive) | GI50 (DU-145): 13.3 µM (inactive) | GI50 (IGROV-1): 18.1 µM (inactive) | GI50 (OVCAR-3): 14.9 µM (inactive) | GI50 (KM12): 20.8 µM (inactive) | GI50 (K562): 4.76 µM (inactive) | GI50 (NCI/ADR-RES): 15 µM (inactive) | GI50 (MOLT-4): 3.03 µM (inactive) | GI50 (NCI-H226): 18.2 µM (inactive) | GI50 (T47D): 12.2 µM (inactive) | GI50 (UO-31): 15.2 µM (inactive) | GI50 (SK-MEL-5): 5.38 µM (inactive) | GI50 (COLO 205): 11.1 µM (inactive) | GI50 (Malme-3M): 11 µM (inactive) | GI50 (OVCAR-8): 15.6 µM (inactive) | GI50 (HL-60): 1.66 µM (inactive) | GI50 (HCT-116): 6.1 µM (inactive) | GI50 (TK-10): 19.7 µM (inactive) | GI50 (CAKI-1): 15 µM (inactive) | GI50 (SF-268): 19.7 µM (inactive) | GI50 (U-251): 15.1 µM (inactive) | GI50 (SK-MEL-2): 14.4 µM (inactive) | GI50 (MCF7): 6.82 µM (inactive) | GI50 (SW-620): 7.74 µM (inactive) | GI50 (LOX IMVI): 1.56 µM (inactive)
